# Patent US20260285853A1, “COMPOUNDS AND METHODS FOR MODULATING SPLICING” (REMIX THERAPEUTICS INC., priority 2023, published 2026)
# Read-outs that look alike come from different tables or passages of the source.
# Experiments:
# Format in all cases: cell-based
# [1] = test system: MYB mRNA; assay: Splicing RT-qPCR assay (THP), Table 2A
# [2] = test system: SH-SY5Y (human neuroblastoma) cells; assay: Cell viability, Cell Titer Glo 2.0 assay; details: read-out: Viability SHSY5Y.3 GI50
# How it was run: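 SH-SY5Y neuroblastoma cells are exposed to test compounds for 72 hours at 37 °C and 5% CO2, with final DMSO held at 0.1%. Cell viability is then measured with the CellTiter-Glo 2.0 assay.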
# [3] = test system: HTT mRNA; assay: Splicing RT-qPCR assay (THP), Table 2A
# [4] = test system: MYB mRNA; assay: Gene panel canonical junction qPCR assay, decrease in CJ mRNA, Table 3
# How it was run: (§1)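 A673 cells were plated, left to adhere for 24 h, then dosed; K562 cells were plated in 96- or 384-well format and dosed directly. Both were incubated 24 h at 37 °C with an 11-point 3-fold series (top 10 uM final). Canonical junction mRNA was then read by cDNA synthesis and qPCR.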
# [5] = test system: HTT mRNA; assay: as above
# How it was run: as §1
# [6] = Table 2A, THP, MYB alternative junction (AJ) mRNA, read-out: MYB AJ (AC50, increase in alternative junction mRNA)
# [7] = Table 2A, THP, MYB canonical junction (CJ) mRNA, read-out: MYB CJ (IC50, decrease in canonical junction mRNA)
# [8] = Table 2A, THP, HTT alternative junction (AJ) mRNA, read-out: HTT AJ (AC50, increase in alternative junction mRNA)
# [9] = Table 2A, THP, HTT canonical junction (CJ) mRNA, read-out: HTT CJ (IC50, decrease in canonical junction mRNA)
# [10] = decrease in CJ mRNA levels, canonical junction qPCR, gene panel
# [11] = Table 2A (THP), AJ mRNA increase, read-out: MYB AJ (increase in alternative junction mRNA, AC50)
# [12] = Table 2A (THP), CJ mRNA decrease, read-out: MYB CJ (decrease in canonical junction mRNA, IC50)
# [13] = Table 2A (THP), AJ mRNA increase, read-out: HTT AJ (increase in alternative junction mRNA, AC50)
# [14] = Table 2A (THP), CJ mRNA decrease, read-out: HTT CJ (decrease in canonical junction mRNA, IC50)
# [15] = decrease in canonical junction (CJ) mRNA, gene panel qPCR, Table 3
Compound,"AC50 [1, 6] [µM]","IC50 [1, 7] [µM]",GI50 [2] [µM],"AC50 [3, 8] [µM]","IC50 [3, 9] [µM]","IC50 [4, 10] [µM]","IC50 [5, 10] [µM]","AC50 [1, 11] [µM]","IC50 [1, 12] [µM]","AC50 [3, 13] [µM]","IC50 [3, 14] [µM]","IC50 [4, 15] [µM]","IC50 [5, 15] [µM]"
Cc1cn2cc(NC(=O)c3ccc(N4CCC(NC5CC5)CC4)c4cc(CO)nn34)cc(F)c2n1 [Compound 622],0.1 to 1,< 0.1,0.1 to 1,0.1 to 1,0.1 to 1,< 0.1,0.1 to 1,,,,,,
"CCNC1CCN(c2cc(O)c(C(=O)Nc3cn4cc(C)nc(C)c4n3)c3nn(C)cc23)CC1 [Compound 332, N-(6,8-dimethylimidazo[1,2-a]pyrazin-2-yl)-4-(4-(ethylamino)piperidin-1-yl)-6-hydroxy-2-methyl-2H-indazole-7-carboxamide 2,2,2-trifluoroacetate]",,,1 to 10,,,,,0.1 to 1,0.1 to 1,> 10,> 10,0.1 to 1,> 10
"CCNC1CCN(c2ccc(C(=O)Nc3cc(CN4CCCC4=O)c4nn(C)cc4c3)c3nn(C)cc23)CC1 [Compound 820, 4-[4-(ethylamino)-1-piperidyl]-2-methyl-N-[2-methyl-7-[(2-oxopyrrolidin-1-yl)methyl]indazol-5-yl]indazole-7-carboxamide]",> 10,1 to 10,> 10,> 10,> 10,1 to 10,> 10,,,,,,
"CCNC1(C)CCN(c2cc(F)c(C(=O)Nc3cn4cc(C)nc(C)c4n3)c3nn(C)cc23)CC1 [Compound 375, N-(6,8-dimethylimidazo[1,2-a]pyrazin-2-yl)-4-[4-(ethylamino)-4-methyl-1-piperidyl]-6-fluoro-2-methyl-indazole-7-carboxamide]",,,0.1 to 1,,,,,< 0.1,< 0.1,1 to 10,1 to 10,< 0.1,1 to 10
"CCNC1CCN(c2ccc(C(=O)Nc3cc(-n4ccc(=O)cc4)c4nc(C)cn4c3)c3nn(C)cc23)CC1 [Compound 360, 4-(4-(ethylamino)piperidin-1-yl)-2-methyl-N-(2-methyl-8-(4-oxopyridin-1-(4H)-yl)imidazo[1,2-a]-pyridin-6-yl)-2H-indazole-7-carboxamide]",,,1 to 10,,,,,1 to 10,1 to 10,1 to 10,1 to 10,1 to 10,1 to 10
CCNC1(C)CCN(c2ccc(C(=O)Nc3cn4cc(C)nc(CNS(C)(=O)=O)c4n3)c3nn(C)cc23)CC1 [Compound 864],1 to 10,1 to 10,> 10,> 10,> 10,1 to 10,> 10,,,,,,
"CCNC1CCN(c2cc(F)c(C(=O)Nc3cn4cc(C5CC5)nc(C)c4n3)c3nn(C)cc23)CC1 [Compound 346, N-(6-cyclopropyl-8-methyl-imidazo[1,2-a]pyrazin-2-yl)-4-(4-(ethylamino)-piperidin-1-yl)-6-fluoro-2-methyl-2H-indazole-7-carboxamide bis(2,2,2-trifluoroacetate)]",,,1 to 10,,,,,> 10,> 10,> 10,> 10,> 10,> 10
Cc1cn2cc(NC(=O)c3ccc(N4CCC(NC5CC5)CC4)c4cn(C)nc34)nc2c(Cn2cnc3ncnc(N)c32)n1 [Compound 831],0.1 to 1,0.1 to 1,0.1 to 1,0.1 to 1,0.1 to 1,0.1 to 1,0.1 to 1,,,,,,
"C#CCCC1(CCN2CCN(c3ccc(C(=O)Nc4cc(F)c5nc(C)cn5c4)c4nn(C)cc34)CC2)N=N1 [Compound 376, 4-(4-(2-(3-(but-3-yn-1-yl)-3H-diazirin-3-yl)ethyl)piperazin-1-yl)-N-(8-fluoro-2-methyl-imidazo-[1,2-a]pyridin-6-yl)-2-methyl-2H-indazole-7-carboxamide bis(2,2,2-trifluoroacetate)]",,,1 to 10,,,,,0.1 to 1,0.1 to 1,> 10,1 to 10,0.1 to 1,1 to 10
"COc1nc2c(C(=O)Nc3cc4cn(C)nc4cc3OC)ccc(N3C[C@H](C)N[C@@H](C)C3)c2s1 [Compound 671, 7-[(3S,5S)-3,5-dimethyl-piperazin-1-yl]-2-methoxy-N-(6-methoxy-2-methyl-indazol-5-yl)-1,3-benzothiazole-4-carboxamide]",0.1 to 1,0.1 to 1,1 to 10,1 to 10,> 10,0.1 to 1,> 10,,,,,,
